One test has as its target T1, human Sirt3 (Homo sapiens, UniProt Q9NTG7).
T1 construct: human Sirt3 (residues 114-380); 6x His tag with TEV protease cleavage site (N); made in house; host or cells: E. coli BL21DE3 Rosetta 2
T1 sequence (Q9NTG7 114-380): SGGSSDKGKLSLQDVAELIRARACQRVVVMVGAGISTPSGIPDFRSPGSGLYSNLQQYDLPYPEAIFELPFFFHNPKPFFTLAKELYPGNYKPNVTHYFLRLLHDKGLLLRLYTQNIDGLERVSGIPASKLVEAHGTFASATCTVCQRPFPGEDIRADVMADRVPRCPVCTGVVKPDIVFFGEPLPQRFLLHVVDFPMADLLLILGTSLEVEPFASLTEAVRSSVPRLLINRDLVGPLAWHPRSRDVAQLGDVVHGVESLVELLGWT
In words: Binding analysis by microscale thermophoresis, Sirt3. The method, then:
Non-bound dye was removed using a Nap25 column (GE Healthcare). Dissociation constants were determined from microscale thermophoresis using a Monolith NT.115 (NanoTemper Technologies, Munich, Germany). […] Dissociation constants were determined by non-linear fitting in GraFit.
Background: In MST a laser heats a spot of the sample, and binding alters the fluorescence response.

In the next test the test system is Sirt3. The settings on record: read-out: KM apparent affinity for cosubstrate; cited from earlier work.
The target in test [1] is T2, human Sirt5 (Homo sapiens, UniProt Q9NXA8).
T2 construct: (residues 34- 302); 6x His tag with TEV protease cleavage site (N); made in house; host or cells: E. coli BL21DE3 Rosetta 2
T2 sequence (Q9NXA8 34-302): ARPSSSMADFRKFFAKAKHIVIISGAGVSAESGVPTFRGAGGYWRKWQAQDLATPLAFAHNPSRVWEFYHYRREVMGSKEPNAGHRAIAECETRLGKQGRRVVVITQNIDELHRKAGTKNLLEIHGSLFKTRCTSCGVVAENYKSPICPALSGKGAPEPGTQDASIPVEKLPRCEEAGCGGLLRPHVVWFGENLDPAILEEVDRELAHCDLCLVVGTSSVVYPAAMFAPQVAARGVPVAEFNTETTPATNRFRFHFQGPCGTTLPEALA
Description: Binding analysis by microscale thermophoresis, Sirt5. The method, then:
For labeling, 100 µM Sirtuin were incubated with 200 µM fluorescein isothiocyanate (Thermo Fisher) in 20 mM HEPES pH 7.5, 150 mM NaCl over night at 4°C in the dark. Non-bound dye was removed using a Nap25 column (GE Healthcare). Dissociation constants were determined from microscale thermophoresis using a Monolith NT.115 (NanoTemper Technologies, Munich, Germany). […] Dissociation constants were determined by non-linear fitting in GraFit.

For a further test, the target named is T3, Sir2Af2 (Archaeoglobus fulgidus, UniProt O30124).
T3 construct: host or cells: E. coli BL21DE3 Rosetta2
T3 sequence (O30124 1-253): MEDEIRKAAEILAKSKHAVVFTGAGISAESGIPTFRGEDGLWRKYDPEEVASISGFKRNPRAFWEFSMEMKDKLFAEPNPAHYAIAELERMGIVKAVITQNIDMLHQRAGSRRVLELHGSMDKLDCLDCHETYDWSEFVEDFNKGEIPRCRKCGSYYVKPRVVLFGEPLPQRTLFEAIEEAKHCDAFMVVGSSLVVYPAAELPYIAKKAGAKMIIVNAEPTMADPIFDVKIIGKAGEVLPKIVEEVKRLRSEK
In words: MS-based peptide deacylation assay, Sir2Af2 wt. The format is biochemical. The settings on record: for IC50: IC50 nicotinamide inhibition; for normalized desuccinylation [%]: succinylated Prx1-Lys197.

The target of a further test is T4, Sirt5Zf (Danio rerio, UniProt Q6DHI5).
T4 construct: zebrafish Sirt5 (residues 30- 298); 6x His tag with TEV protease cleavage site (N); made in house; host or cells: E. coli BL21DE3 Rosetta 2
T4 sequence (Q6DHI5 30-298): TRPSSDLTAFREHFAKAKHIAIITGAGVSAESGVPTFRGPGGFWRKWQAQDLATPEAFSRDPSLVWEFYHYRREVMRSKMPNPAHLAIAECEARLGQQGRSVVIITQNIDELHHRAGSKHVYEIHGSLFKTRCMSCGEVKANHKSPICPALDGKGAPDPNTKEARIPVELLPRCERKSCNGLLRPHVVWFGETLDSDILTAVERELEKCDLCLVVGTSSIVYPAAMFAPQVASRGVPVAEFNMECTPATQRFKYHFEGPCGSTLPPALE
Description: MS-based peptide deacylation assay, zebrafish Sirt5. The class given is biochemical. The settings on record: deacetylation, CPS1 peptide (Fig. S3).

Another test has as its target Sir2Af2-Met70Arg (Archaeoglobus fulgidus, UniProt O30124, M70R). Description: MS-based peptide deacylation assay, Sir2Af2-Met70Arg variant. The settings on record: for IC50: IC50 nicotinamide inhibition.
Test [2] addresses T5, human Sirt5 (human, UniProt Q9NXA8 37-310, labelled with fluorescein isothiocyanate (sites not given)).
T5 construct: Sirt5, human; a 'gene fragment' cloned into pET151/D-Topo
T5 sequence (looked up): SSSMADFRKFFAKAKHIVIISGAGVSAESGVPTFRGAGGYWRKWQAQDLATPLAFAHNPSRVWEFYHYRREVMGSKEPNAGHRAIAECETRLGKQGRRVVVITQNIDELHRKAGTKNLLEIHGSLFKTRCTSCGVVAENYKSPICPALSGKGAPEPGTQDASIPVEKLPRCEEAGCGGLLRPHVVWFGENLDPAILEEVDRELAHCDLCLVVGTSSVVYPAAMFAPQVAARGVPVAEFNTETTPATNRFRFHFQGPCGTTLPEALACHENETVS
In words: MST; ligand (peptide) titrated to 100 nM fluorescein-labelled Sirtuin; mixtures preincubated 30 min at room temperature; Monolith NT.115; non-linear fitting in GraFit. Particulars: both partners purified.

Setting [3] is: 25 µM substrate peptide, read-out: Kd for NAD^+ under peptide saturation.
The mark [4] stands for this setting: in presence of 0.5 mM nicotinamide, read-out: Kd(NAD^+).
[5] abbreviates: no nicotinamide, no peptide, read-out: Kd(NAD^+).
[6] abbreviates: read-out: normalized deacetylation [%].

Like-named read-outs stand apart in the source and are kept apart here. No end group written: not given here.

The Km is the concentration of substrate that gives half-maximal velocity. By IC50 is commonly meant the concentration at which inhibition is half-maximal. Lower therefore signals greater potency in that assay.

Chain of Sir2Af2-Met70Arg (O30124 whole entry M70R): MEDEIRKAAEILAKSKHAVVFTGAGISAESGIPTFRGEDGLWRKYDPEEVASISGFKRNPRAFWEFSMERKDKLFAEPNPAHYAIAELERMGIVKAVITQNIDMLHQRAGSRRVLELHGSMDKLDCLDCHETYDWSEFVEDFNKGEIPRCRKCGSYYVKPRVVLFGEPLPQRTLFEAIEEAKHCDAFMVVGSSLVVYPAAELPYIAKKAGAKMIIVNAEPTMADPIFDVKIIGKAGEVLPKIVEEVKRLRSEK
Description for Sir2Af2-Met70Arg: (§1) Samples were diluted with 0.1% formic acid and filtered using 10 kDa cutoff concentrators. Samples were analyzed on an LC-ESI-MS system consisting of a Prominence HPLC (Shimadzu, Duisburg, Germany) with Sil20AC autosampler connected to an LTQ XL mass spectrometer (Thermo Fisher, Bremen, Germany). […] Extracted ion chromatograms (XICs) with mass windows of ±2 m/z were generated for the acylated and deacylated peptide, and peak areas were determined using automatic peak area detection of the Xcalibur Qual Browser module and further analyzed with Excel (Microsoft, Seattle, USA) or GraFit (Erithacus Software, West Sussex, UK).
Description for Sirt5Zf: as §1

Regarding `NC(=O)c1ccc[n+]([C@@H]2O[C@H](COP(=O)([O-])OP(=O)(O)OC[C@H]3O[C@@H](n4cnc5c(N)ncnc54)[C@H](O)[C@@H]3O)[C@@H](O)[C@H]2O)c1` [NAD^+], the Kd amounted to 260 ± 150 µM on human Sirt3 (setting [3]); 830 ± 240 µM on human Sirt3 (setting [4]); 710 ± 230 µM at human Sirt3 (setting [5]); 200 ± 70 µM at human Sirt5 [1] (setting [3]); 920 ± 230 µM at human Sirt5 [1] (setting [4]); 980 ± 280 µM on human Sirt5 [1] (setting [5]). The Km with Sirt3 is 100 to 600 µM.

For `NC(=O)c1cccnc1` [nicotinamide], the concentration for half-maximal inhibition (IC50) at Sir2Af2 (acetyl-CPS1 substrate) was 5800 ± 1600 µM; against Sir2Af2 (acetyl-Prx1 substrate) it was 1300 ± 300 µM; against Sir2Af2 (deacetylation, p53 peptide (Fig. S3)), 2100 ± 150 µM; at Sir2Af2 (succinyl-CPS1 substrate), 6600 ± 500 µM; against Sir2Af2 (succinyl-Prx1 substrate) it was > 10000 µM; on Sirt5Zf it was 6900 ± 500 µM. Moreover, the IC50 is > 10000 µM at Sir2Af2-Met70Arg (deacetylase activity, acetylated Prx1-Lys197) and 2800 ± 900 µM against Sir2Af2-Met70Arg (desuccinylase activity, succinylated Prx1-Lys197). Also, the remaining activity at 1 µM is 88.7% at Sir2Af2 (NAM 1 µM, acetylated Prx1-Lys197, wt, read-out: normalized deacetylation [%]) and 100% on Sir2Af2-Met70Arg (setting [6]). The “normalized desuccinylation [%]” value on Sir2Af2 (NAM 1 µM, wt) was determined as 100.0%; at Sir2Af2 (NAM 10 µM, wt) it was 96.1%; on Sir2Af2 (NAM 100 µM, wt), 95.7%; at Sir2Af2 (NAM 1000 µM, wt), 88.3%; on Sir2Af2 (NAM 5000 µM, wt), 78.1%; at Sir2Af2 (NAM 10000 µM, wt), 69.1%. Further, the remaining activity at 10 µM worked out at 101% on Sir2Af2 (NAM 10 µM, acetylated Prx1-Lys197, wt, read-out: normalized deacetylation [%]) and 98.1% on Sir2Af2-Met70Arg (setting [6]). For the same molecule, the remaining activity at 100 µM was 93% on Sir2Af2 (NAM 100 µM, acetylated Prx1-Lys197, wt, read-out: normalized deacetylation [%]) and 96.1% on Sir2Af2-Met70Arg (setting [6]). Besides, the remaining activity at 500 µM at Sir2Af2 (NAM 500 µM, acetylated Prx1-Lys197, wt, read-out: normalized deacetylation [%]) stood at 65.4%; on Sir2Af2-Met70Arg (setting [6]), 69.7%. The remaining activity at 1000 µM on Sir2Af2 (NAM 1000 µM, acetylated Prx1-Lys197, wt, read-out: normalized deacetylation [%]) stood at 49.8%; at Sir2Af2-Met70Arg (setting [6]), 86.4%. Further, the remaining activity at 5000 µM on Sir2Af2 (NAM 5000 µM, acetylated Prx1-Lys197, wt, read-out: normalized deacetylation [%]) was 30.4%; at Sir2Af2-Met70Arg (setting [6]), 71.4%. Also, the remaining activity at 10000 µM at Sir2Af2-Met70Arg (setting [6]) stood at 52.6%.

B1: ACS2-Lys642 peptide (TRSG(acK)VMR) (peptide)
peptide: TRSGK(Ac)VMR
notes: acetyl-CoA synthetase 2 (ACS2), stretch around the acetylation site Lys642; also called ACS2 peptide; source: synthetic peptide, bought: GL Biochem (Shanghai)
In the case of B1, the Kd in the test with human Sirt5 [2] came out at 2.1 ± 0.7 µM.

B2: CPS1-Lys527 peptide (FKRGVL(acK)EYGVKV) (peptide)
peptide: FKRGVLK(Ac)EYGVKV
notes: carbamoyl phosphate synthetase 1 (CPS1), stretch around the acetylation site Lys527; also called CPS1 peptide; source: synthetic peptide, bought: GL Biochem (Shanghai)
Regarding B2, the Kd in the test with human Sirt5 [2] was found to be 2.3 ± 1.5 µM.

The values above are taken from article PMC3446968 (PLoS ONE, 2012).
